Laboratory results published in PubChem BioAssay (NCI).
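Growth conditions: 96-well plates. Treatment: test compound, 48 hours, 5 concentrations. Analysis: linear interpolation between bracketing concentrations; unreached endpoints set to highest concentration. TGI: concentration producing complete growth inhibition.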

Columns and labels:
Test in all cases: NCI tumour cell line growth inhibition, 48 h
EKVX NSCLC = test system: EKVX NSCLC
UACC-257 melanoma = test system: UACC-257 melanoma
SK-MEL-2 melanoma = test system: SK-MEL-2 melanoma
RXF-631 renal = test system: RXF-631 renal
OVCAR-4 ovarian = test system: OVCAR-4 ovarian
RPMI-8226 leukemia = test system: RPMI-8226 leukemia
HOP-62 NSCLC = test system: HOP-62 NSCLC
DLD-1 colon = test system: DLD-1 colon
TK-10 renal = test system: TK-10 renal
SK-MEL-5 melanoma = test system: SK-MEL-5 melanoma
CAKI-1 renal = test system: CAKI-1 renal
KM12 colon = test system: KM12 colon
SW-620 colon = test system: SW-620 colon
HS 578T breast = test system: HS 578T breast
COLO 205 colon = test system: COLO 205 colon
HCT-116 colon = test system: HCT-116 colon
UACC-62 melanoma = test system: UACC-62 melanoma
NCI-H522 lung = test system: NCI-H522 lung
OVCAR-8 ovarian = test system: OVCAR-8 ovarian
DMS 114 small cell lung = test system: DMS 114 small cell lung
786-0 renal = test system: 786-0 renal
HOP-18 NSCLC = test system: HOP-18 NSCLC
HCT-15 colon = test system: HCT-15 colon
DU-145 prostate = test system: DU-145 prostate
NCI-H226 lung = test system: NCI-H226 lung
SF-539 CNS = test system: SF-539 CNS
SK-MEL-28 melanoma = test system: SK-MEL-28 melanoma
IGROV1 ovarian = test system: IGROV1 ovarian
SNB-78 CNS = test system: SNB-78 CNS
MOLT-4 leukemia = test system: MOLT-4 leukemia
A498 renal = test system: A498 renal
HCC-2998 colon = test system: HCC-2998 colon
ACHN renal = test system: ACHN renal
U251 CNS = test system: U251 CNS
BT-549 breast = test system: BT-549 breast
HL-60(TB) leukemia = test system: HL-60(TB) leukemia
MCF7 breast = test system: MCF7 breast
RXF 393 renal = test system: RXF 393 renal
HOP-92 NSCLC = test system: HOP-92 NSCLC
OVCAR-3 ovarian = test system: OVCAR-3 ovarian
KM20L2 colon = test system: KM20L2 colon
HT29 colon = test system: HT29 colon
LXFL 529 NSCLC = test system: LXFL 529 NSCLC
OVCAR-5 ovarian = test system: OVCAR-5 ovarian
CCRF-CEM leukemia = test system: CCRF-CEM leukemia
T-47D breast = test system: T-47D breast
MDA-MB-435 = test system: MDA-MB-435
PC-3 prostate = test system: PC-3 prostate
M19-MEL melanoma = test system: M19-MEL melanoma
SNB-75 CNS = test system: SNB-75 CNS
NCI-H460 lung = test system: NCI-H460 lung
SF-268 CNS = test system: SF-268 CNS
MDA-MB-231 breast = test system: MDA-MB-231 breast
M14 melanoma = test system: M14 melanoma
SR leukemia = test system: SR leukemia
LOX IMVI melanoma = test system: LOX IMVI melanoma
NCI-H23 lung = test system: NCI-H23 lung
A549 NSCLC = test system: A549 NSCLC
SF-295 CNS = test system: SF-295 CNS
MALME-3M melanoma = test system: MALME-3M melanoma
UO-31 renal = test system: UO-31 renal
MDA-N = test system: MDA-N
SN12C renal = test system: SN12C renal
SK-OV-3 ovarian = test system: SK-OV-3 ovarian
SNB-19 CNS = test system: SNB-19 CNS
NCI/ADR-RES ovarian = test system: NCI/ADR-RES ovarian
K-562 leukemia = test system: K-562 leukemia
DMS 273 small cell lung = test system: DMS 273 small cell lung

## Cc1nc2ccc(NCCN(C)C)c3c(=O)c4ccccc4n1c23
EKVX NSCLC
  TGI: 14.2 µM
UACC-257 melanoma
  TGI: 17.6 µM
SK-MEL-2 melanoma
  TGI: 18.8 µM
RXF-631 renal
  TGI: 15.8 µM
OVCAR-4 ovarian
  TGI: 6.82 µM
RPMI-8226 leukemia
  TGI: 26.2 µM
HOP-62 NSCLC
  TGI: 19.1 µM
DLD-1 colon
  TGI: 21.3 µM
TK-10 renal
  TGI: 38.5 µM
SK-MEL-5 melanoma
  TGI: 8.95 µM
CAKI-1 renal
  TGI: 13.8 µM
KM12 colon
  TGI: 13.1 µM
SW-620 colon
  TGI: 9.15 µM
HS 578T breast
  TGI: 9.15 µM
COLO 205 colon
  TGI: 11.8 µM
HCT-116 colon
  TGI: 13.8 µM
UACC-62 melanoma
  TGI: 20.2 µM
NCI-H522 lung
  TGI: 9.91 µM
OVCAR-8 ovarian
  TGI: 10.1 µM
DMS 114 small cell lung
  TGI: 21.5 µM
786-0 renal
  TGI: 15.7 µM
HOP-18 NSCLC
  TGI: 51.2 µM
HCT-15 colon
  TGI: 6.22 µM
DU-145 prostate
  TGI: 6.87 µM
NCI-H226 lung
  TGI: 8.69 µM
SF-539 CNS
  TGI: 16 µM
SK-MEL-28 melanoma
  TGI: 21 µM
IGROV1 ovarian
  TGI: 16.6 µM
SNB-78 CNS
  TGI: 23.9 µM
MOLT-4 leukemia
  TGI: 22.2 µM
A498 renal
  TGI: 12.1 µM
HCC-2998 colon
  TGI: 16.7 µM
ACHN renal
  TGI: 22.3 µM
U251 CNS
  TGI: 16.2 µM
BT-549 breast
  TGI: 23.6 µM
HL-60(TB) leukemia
  TGI: > 47.5 µM
MCF7 breast
  TGI: 23.3 µM
RXF 393 renal
  TGI: 22.9 µM
HOP-92 NSCLC
  TGI: 14.2 µM
OVCAR-3 ovarian
  TGI: 35.6 µM
KM20L2 colon
  TGI: 16.9 µM
HT29 colon
  TGI: 10.8 µM
LXFL 529 NSCLC
  TGI: 22.6 µM
OVCAR-5 ovarian
  TGI: 21 µM
CCRF-CEM leukemia
  TGI: 47.5 µM
T-47D breast
  TGI: 39.7 µM
MDA-MB-435
  TGI: 16.1 µM
PC-3 prostate
  TGI: 8.8 µM
M19-MEL melanoma
  TGI: 19.5 µM
SNB-75 CNS
  TGI: 17.8 µM
NCI-H460 lung
  TGI: 10.8 µM
SF-268 CNS
  TGI: 20.2 µM
MDA-MB-231 breast
  TGI: 5.8 µM
M14 melanoma
  TGI: 16.4 µM
SR leukemia
  TGI: 10.6 µM
LOX IMVI melanoma
  TGI: 2.96 µM
NCI-H23 lung
  TGI: 9.94 µM
A549 NSCLC
  TGI: 6.42 µM
SF-295 CNS
  TGI: 14.2 µM
MALME-3M melanoma
  TGI: 18.5 µM
UO-31 renal
  TGI: 11.1 µM
MDA-N
  TGI: 12.4 µM
SN12C renal
  TGI: 40.1 µM
SK-OV-3 ovarian
  TGI: 36.7 µM
SNB-19 CNS
  TGI: 47.8 µM
NCI/ADR-RES ovarian
  TGI: 6.83 µM
K-562 leukemia
  TGI: > 54.8 µM

## Nc1nc(Cl)c2ncn(CCCC(c3ccccc3)P(=O)(O)O)c2n1 (centres undefined)
UACC-257 melanoma
  TGI: > 100 µM
SK-MEL-2 melanoma
  TGI: > 100 µM
RPMI-8226 leukemia
  TGI: > 100 µM
HOP-62 NSCLC
  TGI: > 100 µM
DLD-1 colon
  TGI: > 100 µM
TK-10 renal
  TGI: > 100 µM
SK-MEL-5 melanoma
  TGI: > 100 µM
CAKI-1 renal
  TGI: > 100 µM
KM12 colon
  TGI: > 100 µM
SW-620 colon
  TGI: > 100 µM
COLO 205 colon
  TGI: > 100 µM
HCT-116 colon
  TGI: > 100 µM
UACC-62 melanoma
  TGI: > 100 µM
NCI-H522 lung
  TGI: > 100 µM
OVCAR-8 ovarian
  TGI: > 100 µM
DMS 114 small cell lung
  TGI: > 100 µM
786-0 renal
  TGI: > 100 µM
HOP-18 NSCLC
  TGI: > 100 µM
HCT-15 colon
  TGI: > 100 µM
SF-539 CNS
  TGI: > 100 µM
SK-MEL-28 melanoma
  TGI: > 100 µM
IGROV1 ovarian
  TGI: > 100 µM
SNB-78 CNS
  TGI: > 100 µM
A498 renal
  TGI: > 100 µM
HCC-2998 colon
  TGI: > 100 µM
ACHN renal
  TGI: > 100 µM
U251 CNS
  TGI: > 100 µM
DMS 273 small cell lung
  TGI: > 100 µM
HL-60(TB) leukemia
  TGI: > 100 µM
HOP-92 NSCLC
  TGI: > 100 µM
OVCAR-3 ovarian
  TGI: > 100 µM
KM20L2 colon
  TGI: > 100 µM
HT29 colon
  TGI: > 100 µM
LXFL 529 NSCLC
  TGI: > 100 µM
OVCAR-5 ovarian
  TGI: > 100 µM
CCRF-CEM leukemia
  TGI: > 100 µM
M19-MEL melanoma
  TGI: > 100 µM
SNB-75 CNS
  TGI: > 100 µM
NCI-H460 lung
  TGI: > 100 µM
SF-268 CNS
  TGI: > 100 µM
M14 melanoma
  TGI: > 100 µM
SR leukemia
  TGI: > 100 µM
LOX IMVI melanoma
  TGI: > 100 µM
NCI-H23 lung
  TGI: > 100 µM
A549 NSCLC
  TGI: > 100 µM
SF-295 CNS
  TGI: > 100 µM
MALME-3M melanoma
  TGI: > 100 µM
UO-31 renal
  TGI: > 100 µM
SN12C renal
  TGI: > 100 µM
SK-OV-3 ovarian
  TGI: > 100 µM
SNB-19 CNS
  TGI: > 100 µM
K-562 leukemia
  TGI: > 100 µM
